Measured values taken from ChEMBL document CHEMBL1201862, “PubChem BioAssay data set” (2004).
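Dose response: 5 concentrations. Exposure: 48 h. Format: 96-well plates. Endpoint: linear interpolation; highest concentration if not reached. The concentration for 50% growth inhibition is given as GI50.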 Active and inactive are the calls of the source. Rule as the data show it: active = GI50 up to about 1.1 µM and inactive = higher.

Legend:
Assay in all cases: NCI tumour cell line growth inhibition, 48 h
[1] = tested on: OVCAR-3
[2] = tested on: KM12
[3] = tested on: EKVX
[4] = tested on: Malme-3M
[5] = tested on: COLO 205
[6] = tested on: IGROV-1
[7] = tested on: ACHN
[8] = tested on: M14
[9] = tested on: 786-0
[10] = tested on: NCI-H23
[11] = tested on: SK-MEL-2
[12] = tested on: NCI-H522
[13] = tested on: SN12C
[14] = tested on: HCC 2998
[15] = tested on: TK-10
[16] = tested on: LOX IMVI
[17] = tested on: K562
[18] = tested on: HT-29

Measured: GI50

CCCCCCCSCC1C(=O)C23C(O)C1CCC2C12COC3(O)C(O)C1C(C)(C)CCC2O (stereo unspecified)
inactive: [1] 16.7 µM | [2] 10.6 µM | [3] 17.7 µM | [4] 14.1 µM | [5] 4.16 µM | [6] 17.9 µM | [7] 12.4 µM | [8] 12.2 µM | [9] 13.8 µM | [10] 16.3 µM | [11] 14.8 µM | [12] 1.4 µM | [13] 8.41 µM | [14] 15 µM | [15] 15.9 µM | [16] 13.3 µM | [17] 3.98 µM | [18] 13.5 µM

CCCC/C=C1\CCC(C)(CN(C)C)C1=O (stereo unspecified)
inactive: [1] > 100 µM | [2] > 100 µM | [3] > 100 µM | [4] > 100 µM | [6] > 100 µM | [7] > 100 µM | [8] > 100 µM | [9] > 100 µM | [10] > 100 µM | [11] > 100 µM | [12] 28.9 µM | [13] > 100 µM | [14] > 100 µM | [15] > 100 µM | [17] > 100 µM | [18] > 100 µM

CC(C)N(/C(F)=N\C(=O)Nc1ccccc1C(F)(F)F)C(C)C
inactive: [1] 32 µM | [2] 42.5 µM | [3] 31.8 µM | [4] 31.6 µM | [5] 44.7 µM | [6] 33.8 µM | [7] 39.4 µM | [8] 47.6 µM | [9] 69 µM | [10] 67 µM | [11] 22.8 µM | [13] 37.2 µM | [14] 31.3 µM | [15] 52.5 µM | [16] 32 µM | [17] 35.8 µM | [18] 40.2 µM

COc1ccc(/N=C/c2ccc(N(CCC#N)S(=O)(=O)c3ccccc3)cc2)cc1
inactive: [1] > 100 µM | [2] > 100 µM | [3] > 100 µM | [4] > 100 µM | [5] > 100 µM | [6] > 100 µM | [7] > 100 µM | [8] > 100 µM | [9] > 100 µM | [10] > 100 µM | [11] > 100 µM | [12] > 100 µM | [13] > 100 µM | [15] > 100 µM | [16] > 100 µM | [17] 68.1 µM | [18] > 100 µM

CCCCCCCCCCCCCCCCOC(=O)c1cc(O)cc(C(=O)OCCCCCCCCCCCCCCCC)c1
inactive: [1] > 100 µM | [2] > 100 µM | [3] > 100 µM | [4] > 100 µM | [5] > 100 µM | [6] > 100 µM | [7] > 100 µM | [8] > 100 µM | [9] > 100 µM | [10] > 100 µM | [11] > 100 µM | [12] > 100 µM | [13] > 100 µM | [14] > 100 µM | [15] > 100 µM | [16] > 100 µM | [17] > 100 µM | [18] > 100 µM

CC(C)S(=O)(=O)ON1C(=O)c2ccc([N+](=O)[O-])cc2C1=O
inactive: [1] > 100 µM | [2] > 100 µM | [3] > 100 µM | [4] > 100 µM | [5] > 100 µM | [6] > 100 µM | [7] > 100 µM | [8] > 100 µM | [9] > 100 µM | [10] > 100 µM | [11] > 100 µM | [12] > 100 µM | [13] > 100 µM | [14] > 100 µM | [15] > 100 µM | [17] > 100 µM | [18] > 100 µM

CCOc1ccc(/N=C/c2c3ccccc3nc3ccccc23)cc1
inactive: [1] 31.1 µM | [2] 4.33 µM | [3] 95.3 µM | [4] 49.5 µM | [5] > 100 µM | [6] > 100 µM | [7] 62.1 µM | [8] 55.2 µM | [9] 39.7 µM | [10] 54 µM | [11] 31.3 µM | [12] 49 µM | [13] > 100 µM | [14] > 100 µM | [15] 83 µM | [16] 40.1 µM | [17] 4.48 µM | [18] 21.8 µM

O=C1C2C3C=C4c5ccccc5N(c5ccccc5)C4(C2C(=O)N1c1ccc(Br)cc1)[C@H]1C(=O)N(c2ccc(Br)cc2)C(=O)[C@@H]31 (stereo partly specified)
inactive: [1] > 100 µM | [2] > 100 µM | [3] > 100 µM | [4] > 100 µM | [5] 31.6 µM | [6] > 100 µM | [8] 43.4 µM | [9] > 100 µM | [10] > 100 µM | [11] > 100 µM | [12] > 100 µM | [13] > 100 µM | [15] 89.3 µM | [16] 87.9 µM | [17] > 100 µM | [18] > 100 µM

Cc1c(C)c2cc3c(=O)ccoc3c(C)c2oc1=O
inactive: [1] > 100 µM | [2] > 100 µM | [3] > 100 µM | [4] > 100 µM | [5] 47 µM | [6] 39.8 µM | [7] > 100 µM | [8] > 100 µM | [9] > 100 µM | [10] > 100 µM | [11] > 100 µM | [12] 69.8 µM | [13] 56.6 µM | [14] > 100 µM | [15] > 100 µM | [16] 54 µM | [17] > 100 µM

COC(=O)C12C34C=CC5(CCC6(C=CC1(CC3)O6)C52C(=O)OC)O4 (stereo unspecified)
inactive: [2] > 100 µM | [3] > 100 µM | [4] > 100 µM | [5] > 100 µM | [6] > 100 µM | [7] > 100 µM | [9] > 100 µM | [10] > 100 µM | [11] > 100 µM | [12] > 100 µM | [13] > 100 µM | [14] > 100 µM | [15] > 100 µM | [16] > 100 µM | [17] > 100 µM | [18] > 100 µM

Cc1nc(C)c(C(=O)Nc2cccc3c2C(=O)NC3=O)cc1C(=O)Nc1cccc2c1C(=O)NC2=O
inactive: [1] > 100 µM | [2] > 100 µM | [3] > 100 µM | [4] > 100 µM | [5] > 100 µM | [6] > 100 µM | [7] > 100 µM | [8] > 100 µM | [9] > 100 µM | [10] > 100 µM | [11] > 100 µM | [12] > 100 µM | [13] > 100 µM | [14] > 100 µM | [15] > 100 µM | [16] > 100 µM | [17] > 100 µM | [18] > 100 µM

CCOc1ccc(NC(=O)CCc2nnc(SC)o2)cc1
inactive: [1] > 100 µM | [2] > 100 µM | [3] > 100 µM | [4] > 100 µM | [5] > 100 µM | [6] > 100 µM | [7] > 100 µM | [8] > 100 µM | [9] > 100 µM | [10] > 100 µM | [11] > 100 µM | [12] > 100 µM | [13] > 100 µM | [14] > 100 µM | [15] > 100 µM | [16] > 100 µM | [17] > 100 µM | [18] > 100 µM

C/C(=N/NC(=O)C(N)=O)C(CC(C(=O)Nc1ccccc1C)/C(C)=N\NC(=O)C(N)=O)C(=O)Nc1ccccc1C (stereo unspecified)
inactive: [1] > 100 µM | [2] > 100 µM | [3] > 100 µM | [4] > 100 µM | [5] > 100 µM | [6] > 100 µM | [7] 83.2 µM | [8] > 100 µM | [9] > 100 µM | [10] > 100 µM | [11] > 100 µM | [12] 66.4 µM | [13] > 100 µM | [14] > 100 µM | [15] > 100 µM | [16] > 100 µM | [17] > 100 µM | [18] > 100 µM

COC(=O)N/N=C(\C)c1c(O)cc(C)oc1=O
inactive: [2] 52.6 µM | [3] > 100 µM | [4] > 100 µM | [6] > 100 µM | [7] 25.8 µM | [8] 35.2 µM | [9] 56.2 µM | [10] > 100 µM | [11] 41.4 µM | [13] 78.5 µM | [14] 43.9 µM | [15] 33.2 µM | [16] 7.85 µM | [17] 17.5 µM | [18] 65.3 µM

COC(=O)[C@@]12OC[C@]34C([C@@H](O)C1O)[C@@]1(C)CC(=O)C(OC(=O)/C=C(/c5ccccc5)C(F)(F)F)=C(C)C1C[C@H]3OC(=O)[C@H](O)[C@H]42 (stereo partly specified)
inactive: [2] 14.4 µM | [3] 38.6 µM | [4] 7.91 µM | [5] 11.2 µM | [6] 3.9 µM | [7] 13.9 µM | [8] 8.77 µM | [9] 9.04 µM | [10] 4.56 µM | [11] 7.96 µM | [12] 6.35 µM | [13] 7.93 µM | [14] 3.44 µM | [15] 10.1 µM | [17] 9.4 µM | [18] 6.76 µM

Cc1cc(C)c(C(=O)/C(=C/c2ccccc2)c2ccccc2)c(C)c1
inactive: [1] 51.4 µM | [2] 55.2 µM | [3] 72.8 µM | [4] 18.2 µM | [5] 91.6 µM | [6] 86.3 µM | [7] 40.7 µM | [8] 49.2 µM | [9] 56.2 µM | [10] 40 µM | [11] 11.3 µM | [12] 26.2 µM | [13] 41.7 µM | [15] 93.5 µM | [17] 36.3 µM | [18] 28.2 µM
